From ChEMBL document CHEMBL1201862, “PubChem BioAssay data set” (2004)
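Values below derive from 48-hour exposures of cells grown in 96-well plates, with endpoints linearly interpolated between the two concentrations bracketing the appropriate inhibition level. GI50: concentration for 50% inhibition of growth.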 Active and inactive are the calls of the source. Cut-off read from the data, not from the text of the source: active = GI50 up to about 1.1 µM and inactive = higher.

Assays:
Assay in all cases: inhibition of tumour cell growth, NCI panel, 48 h
[1] = test system: RXF 393
[2] = test system: ACHN
[3] = test system: U-251
[4] = test system: Malme-3M
[5] = test system: A549
[6] = test system: MOLT-4
[7] = test system: RPMI-8226
[8] = test system: SF-539
[9] = test system: MDA-N
[10] = test system: T47D
[11] = test system: MCF7
[12] = test system: TK-10
[13] = test system: SW-620
[14] = test system: SF-295
[15] = test system: SK-MEL-28
[16] = test system: MDA-MB-231
[17] = test system: CCRF-CEM
[18] = test system: NCI/ADR-RES
[19] = test system: HCT-15
[20] = test system: M14

Row | SMILES | GI50 [1] | GI50 [2] | GI50 [3] | GI50 [4] | GI50 [5] | GI50 [6] | GI50 [7] | GI50 [8] | GI50 [9] | GI50 [10] | GI50 [11] | GI50 [12] | GI50 [13] | GI50 [14] | GI50 [15] | GI50 [16] | GI50 [17] | GI50 [18] | GI50 [19] | GI50 [20]
1 | CC1(C)C2CCC3CC(CCC#N)CCC3C21C#N (centres undefined) | > 100 µM (inactive) | > 100 µM (inactive) | > 100 µM (inactive) | > 100 µM (inactive) | > 100 µM (inactive) | > 100 µM (inactive) | > 100 µM (inactive) | > 100 µM (inactive) | > 100 µM (inactive) | > 100 µM (inactive) | > 100 µM (inactive) | > 100 µM (inactive) | > 100 µM (inactive) | > 100 µM (inactive) | > 100 µM (inactive) | > 100 µM (inactive) | > 100 µM (inactive) | > 100 µM (inactive) | > 100 µM | > 100 µM (inactive)
2 | O=C(O)Cc1nc[nH]c1C(=O)O | > 100 µM (inactive) | > 100 µM (inactive) | > 100 µM (inactive) | > 100 µM (inactive) | > 100 µM (inactive) | > 100 µM (inactive) | > 100 µM (inactive) | > 100 µM (inactive) | > 100 µM (inactive) | > 100 µM (inactive) | > 100 µM (inactive) | > 100 µM (inactive) | > 100 µM (inactive) | > 100 µM (inactive) | > 100 µM (inactive) | > 100 µM (inactive) | > 100 µM (inactive) | > 100 µM (inactive) | > 100 µM | > 100 µM (inactive)
3 | CCOC(=O)c1c(SCCN(CC)CC)n(-c2ccccc2)c(=S)n(-c2ccccc2)c1=O | 1.72 µM (inactive) | 1.73 µM (inactive) | 15.6 µM (inactive) | 1.42 µM (inactive) | 3.16 µM (inactive) | 1.09 µM (active) | 0.635 µM (active) | 4.48 µM (inactive) | 2.7 µM (inactive) | 2.55 µM (inactive) | 1.27 µM (inactive) | 1.81 µM (inactive) | 2.74 µM (inactive) | 34.2 µM (inactive) | 2.62 µM (inactive) | 3.33 µM (inactive) | 1.26 µM (inactive) | 32.1 µM (inactive) | 2.54 µM | 1.74 µM (inactive)
4 | Cc1c2cc[n+](C)cc2c(C)c2c1sc1ccccc12 | 1.56 µM (inactive) | 4.7 µM (inactive) | 0.114 µM (active) | 0.542 µM (active) | 0.159 µM (active) | 0.131 µM (active) | 1.22 µM (inactive) | 0.332 µM (active) | 2.77 µM (inactive) | 0.798 µM (active) | 1.3 µM (inactive) | 13.4 µM (inactive) | 0.553 µM (active) | 0.143 µM (active) | 2.45 µM (inactive) | 2.39 µM (inactive) | 0.776 µM (active) | 18.9 µM (inactive) | 18.3 µM | 4.73 µM (inactive)
5 | O=C(O)c1nn[nH]c1Cl | > 100 µM (inactive) | > 100 µM (inactive) | > 100 µM (inactive) | > 100 µM (inactive) | > 100 µM (inactive) | > 10 µM (inactive) | > 100 µM (inactive) | > 100 µM (inactive) | > 100 µM (inactive) | > 100 µM (inactive) | > 100 µM (inactive) | > 100 µM (inactive) | > 100 µM (inactive) | > 100 µM (inactive) | > 100 µM (inactive) | > 100 µM (inactive) | > 100 µM (inactive) | > 100 µM (inactive) | > 100 µM | > 100 µM (inactive)
6 | CC1CC/C(=C\c2ccc(F)cc2)C(=O)/C1=C/c1ccc(F)cc1 (centres undefined) | 3.17 µM (inactive) | 4.15 µM (inactive) | 4.95 µM (inactive) | 17.9 µM (inactive) |  | 3.02 µM (inactive) | 1.61 µM (inactive) | 3.68 µM (inactive) | 3.54 µM (inactive) | 5.46 µM (inactive) | 4.21 µM (inactive) | 3.85 µM (inactive) | 6.04 µM (inactive) | 2.84 µM (inactive) | 13.2 µM (inactive) | 2.66 µM (inactive) | 3.62 µM (inactive) | 2 µM (inactive) | 2.34 µM | 6.76 µM (inactive)
7 | COc1cc2oc(-c3ccc(O)cc3O)c(CC=C(C)C)c(=O)c2c(O)c1/C=C/C(C)C [ARTOCARPIN] | 2.12 µM (inactive) | 2.8 µM (inactive) | 2.56 µM (inactive) | 6.4 µM (inactive) | 2.75 µM (inactive) | 2.33 µM (inactive) | 2.62 µM (inactive) | 4.91 µM (inactive) | 2.79 µM (inactive) | 7.1 µM (inactive) | 2.88 µM (inactive) | 4.85 µM (inactive) | 2.33 µM (inactive) | 3.48 µM (inactive) | 5.85 µM (inactive) | 2.55 µM (inactive) | 2.36 µM (inactive) | 2.64 µM (inactive) | 2.96 µM | 1.77 µM (inactive)
